ChEMBL document CHEMBL1133992, “Hydrolase and sialyltransferase activities of trypanosoma cruzi trans-sialidase towards NeuAc-alpha-2,3-gal-Gal-beta-O-PNP” (Bioorg Med Chem Lett, 2001)
The source made the active and inactive calls. No cut-off for these calls is given here.

How the values were obtained:
Vibrio cholerae = test: Inhibitory activity against Vibrio cholerae sialidase at mM concentration, Not significant
Trypanosoma cruzi [1] = test: Km value for transferase activity of Trypanosoma cruzi trans-sialidase
Trypanosoma cruzi [2] = test: Km value for hydrolase activity of Trypanosoma cruzi trans-sialidase

CCCCCCCCOC1OC(CO)C(O)C(SC2(C(=O)O)CC(O)C(NC(C)=O)C([C@H](O)[C@H](O)CO)O2)C1O (stereo partly drawn)
inhibition (Vibrio cholerae): inactive | Km (Trypanosoma cruzi [1]): > 5 mM | Km (Trypanosoma cruzi [2]): > 5 mM
